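Five compound concentrations were applied to cells in 96-well plates for 48 hours; endpoints were derived by simple linear interpolation of the resulting dose-response curve. TGI marks complete inhibition of growth.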
Assays:
Assay in all cases: NCI-60 cell line screen, 48 h
DU-145 prostate = test system: DU-145 prostate
HT29 colon = test system: HT29 colon
MOLT-4 leukemia = test system: MOLT-4 leukemia
NCI-H460 lung = test system: NCI-H460 lung
NCI-H522 lung = test system: NCI-H522 lung
OVCAR-3 ovarian = test system: OVCAR-3 ovarian
OVCAR-8 ovarian = test system: OVCAR-8 ovarian
SW-620 colon = test system: SW-620 colon
TK-10 renal = test system: TK-10 renal
UACC-62 melanoma = test system: UACC-62 melanoma

| Structure (SMILES) | TGI (DU-145 prostate) | TGI (HT29 colon) | TGI (MOLT-4 leukemia) | TGI (NCI-H460 lung) | TGI (NCI-H522 lung) | TGI (OVCAR-3 ovarian) | TGI (OVCAR-8 ovarian) | TGI (SW-620 colon) | TGI (TK-10 renal) | TGI (UACC-62 melanoma) |
| --- | --- | --- | --- | --- | --- | --- | --- | --- | --- | --- |
| NCCN1CCCCCc2ccccc21 | > 10 µM | > 10 µM | > 10 µM | > 10 µM | > 10 µM | > 10 µM | > 10 µM | > 10 µM | > 10 µM | > 10 µM |
| C[n+]1cc2cc(O)c(O)cc2c2ccc3cc(O)c(O)cc3c21 | > 100 µM | 66.9 µM | 11.2 µM | > 60.2 µM | 3.43 µM | 7.96 µM | 11.4 µM | > 100 µM | > 73.2 µM | 5.34 µM |
| CCOC1C=CC(=O)C(CO)O1 (configuration not stated) | 31.2 µM | 25.4 µM | 21.2 µM | 30.9 µM | 3.52 µM | 19.1 µM | 26 µM | 29.6 µM | 22.7 µM | 25.9 µM |
| CC(C)NC(=O)OCc1c(COC(=O)NC(C)C)n(C)c2c1ccc1sccc12 | 21.1 µM | > 82.6 µM | > 86.1 µM | 27.2 µM | 15.5 µM | 36.9 µM | > 100 µM | > 100 µM | 75.6 µM | 32.5 µM |
| c1ccc2c(c1)SCCCS2 | > 100 µM | > 100 µM | > 100 µM | > 100 µM | > 100 µM | > 100 µM | > 100 µM | > 100 µM | > 100 µM | > 100 µM |
| Cc1nc2ccc(Cl)cc2c(-n2ccnc2)c1CCn1ccnc1 | > 100 µM | 41.7 µM |  | > 100 µM | 70.9 µM | > 100 µM | 3.37 µM | > 100 µM | > 100 µM | 62.5 µM |
| COC(=O)/C=C(/C=C1/C(C#N)=C(N)N(c2ccc(Cl)cc2)C1(C)/C(=C\C(=O)OC)C(=O)OC)C(=O)OC (configuration not stated) | 89.2 µM | 39 µM | 78.9 µM | 46.3 µM | 16.4 µM | 42.3 µM | 33.7 µM | 30.8 µM | 81 µM | 27.4 µM |
| CN(C)CCn1c(=O)c2ccc(NCCCN(C)CCCNc3ccc4c(=O)n(CCN(C)C)c(=O)n5c6ccc(O)cc6c(=O)c3c45)c3c(=O)c4cc(O)ccc4n(c1=O)c23 | 0.655 µM | 1.05 µM | < 0.0289 µM | 0.234 µM | 0.0802 µM |  | 0.347 µM |  | 1.63 µM | 0.215 µM |
| CC(C)Oc1cccc(N2C(n3ccnc3)=Nc3ccncc3S2(=O)=O)c1 | 25 µM | 34.9 µM | 14.8 µM | 37.4 µM | 22 µM | 21.9 µM | 40.7 µM | 40.1 µM | 24.5 µM | 29.2 µM |
| O=c1[nH]c(NCc2ccncc2)nc2nc[nH]c12 | > 100 µM | > 100 µM | > 100 µM | > 100 µM | > 100 µM | > 100 µM | > 100 µM | > 100 µM | > 100 µM | > 100 µM |
| CC1(C)CC(=O)C2=C(C1)C(c1ccccc1Cl)C1C(=O)CC(C)(C)CC1(O)O2 (configuration not stated) | > 100 µM | > 100 µM | > 100 µM | > 100 µM | > 100 µM | > 100 µM | > 100 µM | > 100 µM | > 100 µM | > 100 µM |
| O=CC(I)=C(c1ccccc1)c1ccccc1 | 32.7 µM | 29.4 µM | 72.3 µM | 32.8 µM | 32.3 µM | 17.7 µM | 53.8 µM | 19.9 µM | 44.8 µM | 34.5 µM |
| COC(=O)[C@]1(C)CCC[C@@]2(C)C1CC[C@]13C=C(C(C)C)[C@H](CC21)CC3(Cl)C#N (some centres not stated) | > 100 µM | > 100 µM | > 100 µM | > 100 µM | > 100 µM | > 100 µM | > 100 µM | > 100 µM | > 100 µM | > 100 µM |
| CCOC(=O)CSc1nc(N)c2c(-c3ccccc3)c3c(nc2n1)CCCC3 | > 100 µM | > 100 µM | > 100 µM | > 100 µM | > 100 µM | > 100 µM | > 100 µM | > 100 µM | > 100 µM | > 100 µM |
| Clc1cccc(-c2sc(-c3cccs3)cc2Cc2cccs2)c1 | > 10 µM | > 10 µM | > 10 µM | > 10 µM | > 10 µM |  | > 10 µM | > 10 µM | > 10 µM | > 10 µM |
| S=C(Cc1ccc2c(c1)Sc1ccccc1O2)N1CCOCC1 | > 100 µM | > 100 µM | > 100 µM | > 100 µM |  | > 100 µM | > 100 µM | > 100 µM | > 100 µM | > 100 µM |
| COC(=O)CNC(=O)C(CSC(=O)OCC1c2ccccc2-c2ccccc21)NC(=O)CCC(NC(=O)OCC1c2ccccc2-c2ccccc21)C(=O)OC (configuration not stated) | > 100 µM |  | 56.8 µM | 59.2 µM | 17 µM | 32 µM | 30.4 µM | > 100 µM | > 100 µM |  |
| Cn1nc(-c2ccc(S(=O)(=O)/N=C(\NN)Nc3ccc(Cl)cc3)s2)cc1C(F)(F)F | 30.8 µM | 30.4 µM | 22.4 µM | 37.9 µM |  | 36.4 µM | 43 µM | 36.9 µM | 35.6 µM | 31.1 µM |
| O=c1c(F)cn2c(=O)n1CCCCCCCn1c(=O)c(F)cn(c1=O)CCCCCCC2 | 12.4 µM | > 100 µM | > 100 µM | > 100 µM | > 100 µM | > 100 µM | > 100 µM | > 100 µM | > 100 µM | > 100 µM |
| O=C(CC(NC(=O)C(F)(F)F)C(=O)O)OCc1ccccc1 (configuration not stated) | > 100 µM | > 100 µM | > 100 µM | > 100 µM | > 100 µM | > 100 µM | > 100 µM | > 100 µM | > 100 µM | > 100 µM |
| Cn1c2ccccc2c2ccc3c(c21)C(=O)c1ccc2c4ccccc4n(C)c2c1C3=O | > 100 µM | > 100 µM | > 100 µM | > 100 µM | > 100 µM | > 100 µM | > 100 µM | > 100 µM | > 100 µM | > 100 µM |
| COc1ccc2ccc3oc(=O)c(C)cc3c2c1 | > 100 µM | > 100 µM | > 100 µM | > 100 µM | > 100 µM | > 100 µM | > 100 µM | > 100 µM | > 100 µM | > 100 µM |

From PubChem BioAssay (NCI)
